Where a name gives a salt, the structure may show the parent alone.

Broadly, the IC50 is the concentration that inhibits the measured activity by half.

adenosine kinase, sequence (P55263 whole entry): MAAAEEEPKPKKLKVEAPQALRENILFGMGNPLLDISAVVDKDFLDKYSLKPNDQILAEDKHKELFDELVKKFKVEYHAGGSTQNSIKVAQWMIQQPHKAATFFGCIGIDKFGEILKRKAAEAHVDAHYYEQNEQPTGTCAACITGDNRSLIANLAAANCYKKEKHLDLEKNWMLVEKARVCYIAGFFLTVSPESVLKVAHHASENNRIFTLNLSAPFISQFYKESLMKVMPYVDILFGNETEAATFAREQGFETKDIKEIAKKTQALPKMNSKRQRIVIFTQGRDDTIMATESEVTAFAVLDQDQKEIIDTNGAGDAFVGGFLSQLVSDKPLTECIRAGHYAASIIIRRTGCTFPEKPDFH

The target of the first assay is adenosine kinase (Homo sapiens, UniProt P55263). Description: Inhibition of adenosine kinase in vitro. It is filed as biochemical. Conditions: Table 1, read-out: IC50, Inhibition of Adenosine Kinase by Representative Compounds of the Invention. The text has this:
The adenosine kinase to be inhibited can be located in vitro, in situ or in vivo. Where the adenosine kinase is located in vitro, adenosine kinase is contacted with the inhibitor compound, typically by adding the compound to an aqueous solution containing the enzyme, radiolabeled substrate adenosine, magnesium chloride and ATP. The enzyme can exist in intact cells or in isolated subcellular fractions containing the enzyme. The enzyme is then maintained in the presence of the inhibitor for a period of time and under suitable physiological conditions. Means for determining maintenance times are well known in the art and depend inter alia on the concentrations of enzyme and the physiological conditions. Suitable physiological conditions are those necessary to maintain adenosine kinase viability and include temperature, acidity, tonicity and the like. Inhibition of adenosine kinase can be performed, by example, according to standard procedures well known in the art (Yamada, et al., Comp. Biochem. Physiol. 1982, 71B: 367-372). […] In vitro adenosine kinase activity can be measured using any of the standard procedures well known in the art. By way of example, cells containing adenosine kinase, such as IMR-32 human neuroblastoma cells, are cultured in the presence and absence of an inhibitor. Inhibition is measured as the ability to inhibit phosphorylation of endogenous or externally applied ^14 C-adenosine by these cells. The cells can be intact or broken. The specificity of adenosine kinase inhibitory activity is determined by studying the effects of inhibitors on adenosine A1 and A2α receptor binding, adenosine deaminase activity and adenosine transport. Numerous inhibitor compounds of the present invention were tested in vitro and found to inhibit adenosine kinase activity.
As to `COc1cccc(Cc2c(-c3cccs3)nc3ncnc(N)c3c2-c2cccc(Br)c2)c1` [Example 9, 4-amino-5-(3-bromophenyl)-6-(3-methoxyphenylmethyl)-7-(thiophen-2-yl)pyrido[2,3-d]pyrimidine hydrochloride], the half-inhibitory concentration (IC50) worked out at 23 nM.

Consider `CCCCCc1c(-c2ccc(N(C)C)cc2)nc2ncnc(N)c2c1-c1ccc(F)c(Br)c1` [Example 1, 4-amino-5-(3-bromo-4-fluorophenyl)-6-pentyl-7-(4-(dimethylamino)phenyl)pyrido[2,3-d]pyrimidine], for which the IC50 came out at 80 nM.

For `COc1ccc(-c2c(-c3cccs3)nc3ncnc(N)c3c2-c2cccc(Br)c2)cc1OC` [Example 6, 4-amino-5-(3-bromophenyl)-6-(3,4-dimethoxyphenyl)-7-(thiophen-2-yl)pyrido[2,3-d]pyrimidine], the IC50 came out at 1 nM.

`Nc1ncnc2nc(-c3ccc(N4CCOCC4)nc3)c(-c3ccccc3)c(-c3ccccc3)c12` [Example 40, 4-amino-5-phenyl-6-phenyl-7-(6-morpholinyl-3-pyridinyl)pyrido [2,3-d]pyrimidine hydrochloride]: the IC50 stood at 3 nM.

Take `COc1ccc(-c2c(-c3cccs3)nc3ncnc(N)c3c2-c2cccc(Cl)c2)cc1OC` [Example 12, 4-amino-5-(3-chlorophenyl)-6-(3,4-dimethoxyphenyl)-7-(thiophen-2-yl)pyrido[2,3-d]pyrimidine hydrochloride]: the 50% inhibitory concentration (IC50) was 1 nM.

Regarding `CN(C)c1ccc(-c2nc3ncnc(N)c3c(-c3ccccc3)c2-c2ccccc2)cc1.Cl.Cl` [Example 27, 4-amino-5,6-diphenyl-7-(4-dimethylaminophenyl)pyrido [2,3-d]pyrimidine dihydrochloride], the half-inhibitory concentration (IC50) is 9 nM.

In the case of `CCc1c(-c2cccs2)nc2ncnc(N)c2c1-c1cccc(Br)c1` [Example 4, 4-amino-5-(3-bromophenyl)-6-ethyl-7-(thiophen-2-yl)pyrido[2,3-d]pyrimidine], the IC50 came out at 3 nM.

Turning to `COc1ccc(-c2c(-c3cccs3)nc3ncnc(N)c3c2-c2cc(Br)cs2)cc1OC` [Example 11, 4-amino-5-(4-bromothiophen-2-y)-6-(3,4-dimethoxyphenyl)-7-(thiophen-2-yl)pyrido[2,3-d]pyrimidine hydrochloride], the 50% inhibitory concentration (IC50) came to 0.3 nM.

In the case of `COCCN(C)c1ccc(-c2nc3ncnc(N)c3c(-c3ccccc3)c2-c2ccccc2)cc1` [Example 26, 4-amino-5-phenyl-6-phenyl-7-(4-(N-methyl-N-(2-methoxyethyl)amino)phenyl)pyrido[2,3-d]pyrimidine hydrochloride], the concentration for half-maximal inhibition (IC50) is 5 nM.

As for `Nc1ncnc2nc(-c3ccc(N4CCOCC4)nc3)c(-c3ccccc3)c(-c3cccc(Br)c3)c12` [Example 41, 4-amino-5-(3-bromophenyl)-6-phenyl-7-(6-morpholinyl-3-pyridinyl)pyrido [2,3-d]pyrimidine hydrochloride], the IC50 came to 2 nM.

As to `COCCN(C)c1ccc(-c2nc3ncnc(N)c3c(-c3cc(Br)cs3)c2-c2ccc(OC)c(OC)c2)cc1.Cl` [Example 19, 4-amino-5-(4-bromothiophen-2-yl)-6-(3,4-dimethoxyphenyl)-7-(4-(N-methyl-N-(2-methoxyethyl)amino)phenyl)pyrido [2,3-d]pyrimidine hydrochloride], the IC50 amounted to 0.1 nM.

`CCOC(=O)Cc1c(-c2cccs2)nc2ncnc(N)c2c1-c1cccc(Br)c1` [Example 8, 4-amino-5-(3-bromophenyl)-6-ethoxycarbonylmethyl-7-(thiophen-2-yl)pyrido[2,3-d]pyrimidine hydrochloride]: the concentration for half-maximal inhibition (IC50) came to 3 nM.

Take `CC(C)c1ccc(-c2c(-c3ccc(N(C)C)cc3)nc3ncnc(N)c3c2-c2ccc(C(C)C)cc2)cc1` [Example 25, 4-amino-5,6-(bis-4-(2-propyl)phenyl)-7-(4-dimethylaminophenyl)pyrido[2.3-d]pyrimidine]: the 50% inhibitory concentration (IC50) came to 4 nM.

`Nc1ncnc2nc(-c3ccc(N4CCOCC4)nc3)c(-c3ccc(F)cc3)c(-c3cccc(Br)c3)c12` [Example 39, 4-amino-5-(3-bromophenyl)-6-(4-fluorophenyl)-7-(6-morpholinyl-3-pyridinyl)pyrido[2,3-d]pyrimidine hydrochloride]: the IC50 came to 5 nM.

The next assay concerns male CF1 mice (hot plate analgesia). The experiment in a line: Mouse hot plate assay (hot plate test of analgesia). The conditions noted are these: 30 μmol/kg i.p., thirty minutes after pretreatment, 55° C. hot plate; vehicle alone 72.76±10.51 seconds. It is filed as in vivo. As for the experimental part:
The compounds of the invention were tested in vivo in the hot plate test of analgesia in mammals such as mice. […] Mouse Hot Plate Assay […] At the end of the pretreatment period, the mice are placed in an Omnitech Electronics Automated 16 Animal Hot Plate Analgesia Monitor (Columbus, Ohio; Model […]) in individual, 9.8×7.2×15.3 cm (l×w×h) plastic enclosures on top of a copper plate warmed to 55° C. […] sensors located near the top of each enclosure record beam crossings that occur as the mice jump off of the heated surface. Latency times for each jump are automatically recorded, and latency to both the first and tenth jumps are used for data analysis.
A general note: Thermal pain tests record how soon the animal reacts.
Consider `CN(C)c1ccc(-c2nc3ncnc(N)c3c(-c3ccccc3)c2-c2ccccc2)cc1.Cl.Cl` [Example 27, 4-amino-5,6-diphenyl-7-(4-dimethylaminophenyl)pyrido [2,3-d]pyrimidine dihydrochloride], for which the “latency to 10th jump” value was 154.86 s.

For `COCCN(C)c1ccc(-c2nc3ncnc(N)c3c(-c3cc(Br)cs3)c2-c2ccc(OC)c(OC)c2)cc1.Cl` [Example 19, 4-amino-5-(4-bromothiophen-2-yl)-6-(3,4-dimethoxyphenyl)-7-(4-(N-methyl-N-(2-methoxyethyl)amino)phenyl)pyrido [2,3-d]pyrimidine hydrochloride], the “latency to 10th jump” value came out at 142.13 s.

For the origin of these results see US6030969A, “5,6,7-trisubstituted-4-aminopyrido[2,3-D] pyrimidine compounds” (Abbott Laboratories, priority 1998, dated 2000).
